Source: patent US8642611B2, “Alkynylpyrimidines and salts thereof, pharmaceutical compositions comprising same, methods of preparing same and uses of same” (Bayer Intellectual Property GmbH, priority 2007, dated 2014)

Tests used:
[1] = test system: MVECs; assay: VEGF-Stimulated Endothelial Cell Proliferation Assay; assay type: cell-based; conditions: 72 h, 3 days, Alamar Blue, read-out: EC proliferation (assay 5)
Procedure: Assay 5: VEGF-Stimulated Endothelial Cell Proliferation Assay
MVECs are plated to collagen coated 48 well plates at a density of 30 000 cells per well in Earles's Medium M199 (complete with serum). After 4 h the medium is exchanged for medium containing 2% human serum without growth factors (200 μl) and cells are maintained overnight at low serum conditions. The other day the medium is exchanged for the same low serum medium containing in addition test compounds or vehicle in the appropriate concentrations using appropriate controls is exchanged. Five minutes later low serum medium containing 40 ng/ml VEGF is added (200 μl). Cells are cultured for 3 days before mixing with Alamar Blue® (dilution factor of 1: 20) and incubating it for 2 h at 37° C. Measurement of fluorescence intensity is done with the following filters: 528/25 Excitation, 590/35 Emission for the determination of the IC50 concentrations.
Culture Medium Composition
Earle's Medium 199 with stable Glutamine (PAA)+5 ml PenStrep (100×; 10000 Units/10 mg/ml) (PAA)+5 ml Non Essential Amino Acids (100×; without L-Glutamine) (PAA)+5 ml Sodium Pyruvat (100 mM) (PAA)+50 ml FCS (PAA)+50 ml HS+1 ml ECGS in Dulbecco's PBS without Ca2++Mg2+(5 mg/ml) (Sigma)+1 ml Heparin (2500 Units/ml)+2.5 ml Biotect-Protection medium (Biochrom AG)=complete Earle's M 199 medium
Earle's Medium 199 (PAA) with stable Glutamine+5 ml PenStrep (100×; 10000 Units/10 mg/ml) (PAA)+5 ml Non Essential Amino Acids (100×; without L-Glutamine) (PAA)+5 ml Sodium Pyruvat (100 mM) (PAA), 2% HS+2.5 ml Biotect- Protection medium (Biochrom AG)

[2] = target: T1, human Aurora-C (Homo sapiens, UniProt Q9UQB9); assay: Aurora-C Kinase Assay; assay type: biochemical; conditions: Aurora-C HTRF, 10 μM ATP; read-out: Aurora C activity (assay 7)
T1 construct: GST; made in house; host or cells: transiently transfected HEK293 cells (the print adds '(Sf9)', which contradicts this)
T1 sequence (Q9UQB9 1-309): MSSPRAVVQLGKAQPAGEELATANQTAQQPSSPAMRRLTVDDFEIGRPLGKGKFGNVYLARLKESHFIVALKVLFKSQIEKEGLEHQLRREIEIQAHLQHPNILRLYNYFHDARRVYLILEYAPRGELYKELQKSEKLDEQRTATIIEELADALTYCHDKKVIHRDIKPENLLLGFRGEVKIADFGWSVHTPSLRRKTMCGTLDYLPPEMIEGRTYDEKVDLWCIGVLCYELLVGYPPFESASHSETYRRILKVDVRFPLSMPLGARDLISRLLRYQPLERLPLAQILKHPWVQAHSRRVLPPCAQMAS
Excerpt: Assay 7: Aurora-C Kinase Assay
Aurora-C inhibitory activity of compounds of the present invention was quantified employing the Aurora-C HTRF assay as described in the following paragraphs.
Recombinant fusion protein of GST and human Aurora-C was expressed in transiently transfected HEK293 cells […] and purified by Glutathion-Sepharose affinity chromatography. As substrate for the kinase reaction biotinylated peptide biotin-Ttds-FMRLRRLSTKYRT (C-terminus in amid form) was used which can be purchased e.g. form the company JERINI peptide technologies (Berlin, Germany). Aurora-C was incubated for 60 min at 22° C. in the presence of different concentrations of test compounds in 5 μl assay buffer [25 mM Hepes/NaOH pH 7.4, 0.5 mM MnCl2, 2.0 mM dithiothreitol, 0.1 mM sodium ortho-vanadate, 10 μM adenosine-tri-phosphate (ATP), […] substrate, 0.01% (v/v) TritonX-100 (Sigma), 0.05% (w/v) bovine serum albumin, 1% (v/v) dimethylsulfoxide]. The concentration of Aurora-C was adjusted depending of the activity of the enzyme lot and was chosen appropriate to have the assay in the linear range, typical concentrations were in the range of 0.3 nM. The reaction was stopped by the addition of 5 μl of a solution of HTRF detection reagents (0.2 μM streptavidine-XLent and 1.4 nM Anti-Phospho-(Ser/Thr) Akt substrate-Cryptate (C is biointernational, France, product no. 61PO2KAE), a labeled Phospho-(Ser/Thr) Akt substrate antibody [product #9611B, Cell Signaling Technology, Danvers, Mass., USA] labeled with Europium Cryptate, in an aqueous EDTA-solution (40 mM EDTA, 400 mM KF, 0.05% (w/v) bovine serum albumin in 25 mM HEPES/NaOH pH 7.0).
The resulting mixture was incubated 1 h at 22° C. to allow the binding of the biotinylated phosphorylated peptide to the streptavidine-XLent and the Anti-Phospho-(Ser/Thr) Akt substrate-Cryptate. Subsequently the amount of phosphorylated substrate was evaluated by measurement of the resonance energy transfer from the Prot-A-EuK to the streptavidine-XLent. Therefore, the fluorescence emissions at 620 nm and 665 nm after excitation at 350 nm was measured in a HTRF reader, e.g. a Rubystar (BMG Labtechnologies, Offenburg, Germany) or a Viewlux (Perkin-Elmer). The ratio of the emissions at 665 nm and at […] was taken as the measure for the amount of phosphorylated substrate. The data were normalised (enzyme reaction without inhibitor=0% inhibition, all other assay components but no enzyme=100% inhibition) and IC50 values were calculated by a 4 parameter fit using an inhouse software.

IC50 [2] [µM]	Structure (SMILES)	IC50 [1] [µM]
> 10	COc1ccc(C#Cc2cnc(Nc3ccc(S(C)(=N)=O)cc3)nc2N[C@H](C)CO)cc1 (mixture of isomers) [Example 1.1, (RS)—S-(4-[4-((R)-2-Hydroxy-1-methyl-ethylamino)-5-(4-methoxy-phenylethynyl)-pyrimidin-2-ylamino]-phenyl)-S-methylsulfoximide]	< 0.5
> 10	C[C@H](CO)Nc1nc(Nc2ccc(S(C)(=N)=O)cc2)ncc1C#Cc1ccccc1 (mixture of isomers) [Example 1.2, (RS)-S-(4-[4-((R)-2-Hydroxy-1-methyl-ethylamino)-5-(phenylethynyl)-pyrimidin-2-ylamino]-phenyl)-S-methylsulfoximide]	< 0.5
> 10	CCc1ccc(C#Cc2cnc(Nc3ccc(S(C)(=N)=O)cc3)nc2N[C@H](C)CO)cc1 (mixture of isomers) [Example 1.8, (RS)-S-(4-[5-(4-Ethyl-phenylethynyl)-4-((R)-2-hydroxy-1-methyl-ethylamino)-pyrimidin-2-ylamino]-phenyl)-S-methylsulfoximide]	
> 10	C[C@H](CO)Nc1nc(Nc2ccc(S(C)(=N)=O)cc2)ncc1C#Cc1ccc(F)cc1 (mixture of isomers) [Example 1.9, (RS)-S-(4-[5-(4-Fluoro-phenyl-ethynyl)-4-((R)-2-hydroxy-1-methyl-ethylamino)-pyrimidin-2-ylamino]-phenyl)-S-methylsulfoximide]	< 0.5
> 10	Cc1cc(C#Cc2cnc(Nc3ccc(S(C)(=N)=O)cc3)nc2N[C@H](C)CO)ccc1F (mixture of isomers) [Example 1.13, (RS)-S-(4-[5-(4-Fluoro-3-methyl-phenyl-ethynyl)-4-((R)-2-hydroxy-1-methyl-ethylamino)-pyrimidin-2-ylamino]-phenyl)-S-methylsulfoximide]	< 0.5
> 10	CC(C)NC(=O)N=S(C)(=O)c1cccc(Nc2ncc(C#Cc3cccc(O)c3)c(N[C@H](C)CO)n2)c1 (mixture of isomers) [Example 1.15, (RS)-S-(3-[4-((R)-2-Hydroxy-1-methyl-ethylamino)-5-(3-hydroxy-phenylethynyl)-pyrimidin-2-ylamino]-phenyl)-N-(isopropylcarbamoyl)-S-methylsulfoximide]	
> 10	COc1ccc(C#Cc2cnc(Nc3cccc(S(C)(=N)=O)c3)nc2N[C@H](C)CO)cc1 (mixture of isomers) [Example 1.17, (RS)-S-(3-[4-((R)-2-Hydroxy-1-methyl-ethylamino)-5-(4-methoxy-phenylethynyl)-pyrimidin-2-ylamino]-phenyl)-S-methylsulfoximide]	
> 10	C[C@H](CO)Nc1nc(Nc2cccc(S(C)(=N)=O)c2)ncc1C#Cc1cccc(O)c1 (mixture of isomers) [Example 1.18, (RS)-S-(3-[4-((R)-2-Hydroxy-1-methyl-ethylamino)-5-(3-hydroxy-phenylethynyl)-pyrimidin-2-ylamino]-phenyl)-S-methylsulfoximide]	< 0.5
> 10	Cc1ccccc1C#Cc1cnc(Nc2cccc(S(C)(=N)=O)c2)nc1N[C@H](C)CO (mixture of isomers) [Example 1.19, (RS)-S-(3-[4-((R)-2-Hydroxy-1-methyl-ethylamino)-5-(2-methyl-phenylethynyl)-pyrimidin-2-ylamino]-phenyl)-S-methylsulfoximide]	< 0.5
> 10	Cc1cc(C#Cc2cnc(Nc3cccc(S(C)(=N)=O)c3)nc2N[C@H](C)CO)ccc1F (mixture of isomers) [Example 1.20, (RS)-S-(3-[5-(4-Fluoro-3-methyl-phenyl-ethynyl)-4-((R)-2-hydroxy-1-methyl-ethylamino)-pyrimidin-2-ylamino]-phenyl)-S-methylsulfoximide]	< 0.5
> 10	Cc1ccccc1C#Cc1cnc(Nc2ccc(S(C)(=N)=O)cc2)nc1N[C@H](C)CO (mixture of isomers) [Example 1.3]	< 0.5
> 10	Cc1ccc(C#Cc2cnc(Nc3ccc(S(C)(=N)=O)cc3)nc2N[C@H](C)CO)cc1 (mixture of isomers) [Example 1.5]	< 0.5
1 to 10	CCNc1nc(Nc2ccc(S(C)(=N)=O)cc2)ncc1C#Cc1ccc(F)c(C)c1 (racemic) [Example 1.24, (RS)-S-(4-[4-ethylamino-5-(4-fluoro-3-methyl-phenyl-ethynyl)-pyrimidin-2-ylamino]-phenyl)-S-methylsulfoximide]	
1 to 10	CCNc1nc(Nc2ccc(S(C)(=N)=O)cc2)ncc1C#Cc1ccc(OC)cc1 (racemic) [Example 1.26, (RS)-S-(4-[4-ethylamino-5-(4-methoxy-phenyl-ethynyl)-pyrimidin-2-ylamino]-phenyl)-S-methylsulfoximide]	
1 to 10	CCOC(=O)N=S(C)(=O)c1ccc(Nc2ncc(C#Cc3cccc(O)c3)c(N[C@H](C)CO)n2)cc1 (mixture of isomers) [Example 2.7]	< 0.5
> 10	CS(=N)(=O)c1cccc(Nc2ncc(C#Cc3cccc(O)c3)cn2)c1 (racemic) [Example 4.2, (RS)—S-(3-[5-(3-hydroxy-phenylethynyl)-pyrimidin-2-ylamino]-phenyl)-S-methylsulfoximide]	
